The source of these data is US20260185056A1, “TRIPLE TISSUE CULTURE FUSION” (IMBA - INSTITUT FÜR MOLEKULARE BIOTECHNOLOGIE GMBH, priority 2022, published 2026).

Holding throughout (type): cell-based, human
Experiment [1] has as its system ventral midbrain organoids. As to the kind of experiment: CHIR dose curve (Wnt activation) for midbrain induction in ventral midbrain organoids (qPCR OTX2, FOXA2, TH). As to the method:
FIG. 2A-D: qPCR analysis of markers of ventral midbrain of the dose curving experiment to generate ventral midbrain organoids. Two separate dose curving experiments were performed, where first the correct dosage of sonic hedgehog activation was tested (FIG. 2A, floor plate marker FOXA2). Secondly, we performed qPCR to test for appropriate concentrations of posteriorization using Wnt activation. Dopaminergic neurons are born in the very ventral floor plate of the posterior midbrain, next to the midbrain-hindbrain boundary, thus the Forebrain and Midbrain marker OTX2 should still be expressed, whereas the hindbrain is OTX2 negative. We found a concentration of 0.8-1 μM sufficient to introduce midbrain (FIG. 2B), while the floor plate marker FOXA2 was still expressed (FIG. 2C). qPCR for the dopaminergic marker TH (Tyrosine hydroxylase, the rate-limiting enzyme for dopamine synthesis) confirmed this concentration of Wnt activation, with a sharp drop of TH expression starting at 1.2 μM CHIR (FIG. 2D).
All qPCR data are relative to the expression of TBP.
For each condition, 6-8 organoids were collected at indicated time points into 2 ml RNAse-free tubes. RNA was extracted using the Rneasy mini kit (Qiagen). […]
Quantification was performed in excel by calculating ΔCt relative to TBP. […]

The test system of experiment [2] is VM, striatal and cortical neurons of fused organoids. As to the kind of experiment: Chronic cocaine treatment of fused organoids: GCAMP6S calcium imaging. To be noted: for calcium event frequency: VM, striatal and cortical patterned neurons. As to the method: (§1) A, Schematic for the treatment of fused organoids with cocaine. […] Functional, morphological and transcriptional analysis was performed on day 130. B, Representative images of dopaminergic (TH^+) axons in striatal and cortical tissue in control, chronic and withdrawal fused organoids. C, Schematic for the extraction of varicosity density and varicosity diameter in dopaminergic axons. D, Quantifications of TH^+ varicosity density in striatal and cortical tissue. N=6-8 organoids per condition, 39-49 axons. E, Measurement of varicosity diameter (axon average) in striatal and cortical tissue. N=6-8 organoids, 36-47 axons per condition and 1055|1552|1347 (striatal) and 923|1063|1340 (cortical) boutons measured. F, Schematic of the parameters' frequency and duration from GCAMP traces after extraction with CaImAn. G-H, fused organoids with GCAMP6S expression in either VM, striatal or cortical tissue were recorded on day 130 in control, chronic and withdrawal conditions (10-21 organoids per condition). […] H, Analysis of calcium event frequency of striatal (n=248|245|680) and cortical (175|936|885) neurons in control, chronic and withdrawal conditions. I-J, Volcano plot comparing bulk RNAseq data of day 130 forebrain organoids chronic versus control (I) and withdrawal versus control (J) (n=6-9 organoids of 2-3 batches). […] Samples were analyzed with one-way ANOVA followed by unpaired Mann-Whitney test.
(§2) A, Representative 130 day old GCAMP recordings of fused organoids with Syn-GCAMP expression either in the cortical, or striatal, or VM tissue in control (left), chronic (middle) and withdrawal (right) condition. […] D, Analysis of calcium event frequency of VM (n=100|278|115) neurons in control, chronic and withdrawal conditions. […] Samples were analyzed with one-way ANOVA followed by unpaired Mann-Whitney test (C, D). E-F, Volcano plots of differentially expressed genes in VM tissue in chronic versus control I and withdrawal versus control (F). G-I, GSEA analysis of three GO terms associated with neural circuit formation (Dendrite Development, Axon Development and Synapse Organization) in forebrain chronic vs control (top) and forebrain withdrawal versus control (bottom).
Organoids were grown until […]. GCAMP was recorded using an Olympus Spinning Disk (see Microscopy section). In brief, 20× magnification and an exposure time of 65 ms per frame (continuous recording) were used for up to 6.5 min of continuous recording. For trace extraction, recordings were scaled down from 2048×2048 to 512×512 pixels. Trace extraction was performed using the opensource software package CaImAn (Flatiron Institute).
(§3) Here, we used the neural multi-tissue organoids to test the effects of cocaine on the establishment of the dopaminergic system. Cocaine is a dopamine reuptake inhibitor, which binds to the dopamine transporter (DAT) and inhibits the reuptake of dopamine after release and thus increases the available levels of dopamine to target cells. While the effects of cocaine on the adult brain are relatively well understood, not much is known about the effects of cocaine on the development of the CNS-predominantly because of the lack of an effective model system. We tested the effects of chronic cocaine exposure and its potential effect on the establishment of the dopaminergic system. […] We chronically treated fused organoids with cocaine from day 40 until day 130 and generated a withdrawal condition which was not exposed to cocaine from day 105 onwards (FIG. 17A).
In vivo, cocaine exposure has been associated with changes in neural activity.

Experiment [3] concerns forebrain and VM tissue of fused organoids. The experiment in a line: Chronic cocaine treatment of fused organoids: bulk RNAseq. The settings on record: for transcriptional change (bulk RNAseq): day 130. Here is the method: as §1, §2, §3
In experiment [4] the test system is dopaminergic (TH+) axons in striatal and cortical tissue of fused organoids. The experiment in a line: Chronic cocaine treatment of fused organoids: TH+ varicosity density and diameter. The settings on record: for density of TH+ varicosities on axons / diameter of TH+ varicosities: chronic 0.7 μM, vs control; for density of TH+ varicosities on axons: 1 h every 3 days, day 40-130; for diameter of TH+ varicosities: day 130. As to the method: A, Schematic for the treatment of fused organoids with cocaine. […] Functional, morphological and transcriptional analysis was performed on day 130. B, Representative images of dopaminergic (TH^+) axons in striatal and cortical tissue in control, chronic and withdrawal fused organoids. C, Schematic for the extraction of varicosity density and varicosity diameter in dopaminergic axons. D, Quantifications of TH^+ varicosity density in striatal and cortical tissue. N=6-8 organoids per condition, 39-49 axons. E, Measurement of varicosity diameter (axon average) in striatal and cortical tissue. N=6-8 organoids, 36-47 axons per condition and 1055|1552|1347 (striatal) and 923|1063|1340 (cortical) boutons measured. F, Schematic of the parameters' frequency and duration from GCAMP traces after extraction with CaImAn. G-H, fused organoids with GCAMP6S expression in either VM, striatal or cortical tissue were recorded on day 130 in control, chronic and withdrawal conditions (10-21 organoids per condition). […] 1776|2144|4254 individual calcium events (striatal) and 1437|6931|8000 individual calcium events (cortical). H, Analysis of calcium event frequency of striatal (n=248|245|680) and cortical (175|936|885) neurons in control, chronic and withdrawal conditions. I-J, Volcano plot comparing bulk RNAseq data of day 130 forebrain organoids chronic versus control (I) and withdrawal versus control (J) (n=6-9 organoids of 2-3 batches). […] Samples were analyzed with one-way ANOVA followed by unpaired Mann-Whitney test.
2Eci tissue clearing was performed as previously described (Masselink & Reumann, et al., Development 146, 2019). In brief, organoids were fixed with 4% formaldehyde in PBS for 4 h at RT. For 3D immunohistochemistry, PBS-TxDB was prepared: 10×PBS, 5% BSA and 2% TX100 were pre-mixed and filled up with distilled water to achieve approx. 70% of aimed volume (e.g. for 11 of PBS-TxDB, 100 ml of 10×PBS, 50 g BSA and 20 ml TX100 were used and filled up to 700 ml with distilled water. 20% DMSO was then added slowly under heavy stirring-rapid addition of DMSO may result in irreversible BSA aggregation. The solution was filled up to 100% with distilled water and sterile filtered. PBS-TxDB is stable at RT for at least several weeks, or at 4° C. for up to a year.
Organoids were blotted/permeabilized on a rotor or shaking plate for 1-2 days in 10 ml PBS-TxDB at RT. Organoids (dependent on the size, between 3 and 6) were then transferred into 2 ml Eppendorf tubes containing primary antibody solution in PBS-TxDB (between 500 μl to 1 ml) and transferred to a rotor or shaking plate for 5 days. Organoids were then washed in 10 ml PBS-TxDB for 2 days (1× rinse, 3×PBS-TxDB exchange) and the same steps were repeated for secondaries. After washing off the residual secondaries, organoids were washed in PBS for 1 h and then fixed in 4% Formaldehyde solution for 30 min-2 h. Organoids were then ready to be dehydrated in a 1-Propanol gradient (30%, 50%, 70%, 100%, 100%, 4-8 h per step). As no endogenous fluorescence had to be maintained, pH adjustment of the 1-Propanol was skipped. After dehydration, organoids were transferred into Ethyl Cinnamate and were ready for imaging as soon as completely transparent (1-3 h or overnight at RT). Cleared organoids were stored at room temperature and should not be transferred to 4° C., as Ethyl Cinnamate crystallizes out at lower temperatures. […]

Values joined by “and” are separate entries in the source; they are usually repeats but may differ in a detail not shown here. Equal values may be shown once. Where a name gives a salt, the structure may show the parent alone.

Consider `Cc1cnc(-c2cnc(NCCNc3ccc(C#N)cn3)nc2-c2ccc(Cl)cc2Cl)[nH]1` [CHIR, 6-[[2-[[4-(2,4-dichlorophenyl)-5-(5-methyl-1H-imidazol-2-yl)-2-pyrimidinyl]amino]ethyl]amino]-3-pyridinecarbonitrile], for which the “concentration sufficient for midbrain induction” value in experiment [1] (OTX2, FOXA2 and TH still expressed (qPCR)) was 0.8 to 1 µM and 1 µM. In addition, the “concentration at which sharp drop of TH expression starts” value in experiment [1] (qPCR, relative to TBP) is not below 1.2 µM.
As for `COC(=O)[C@H]1[C@@H](OC(=O)c2ccccc2)C[C@@H]2CC[C@H]1N2C` [cocaine hydrochloride], the calcium event duration entry in experiment [2] (VM neurons, chronic condition, day 130) is given as “decrease”; in experiment [2] (VM neurons, cocaine withdrawal), “without recovery”; in experiment [2] (cortical patterned neurons, chronic condition, day 130, vs control, hydrochloride), “increase”; in experiment [2] (cortical patterned neurons, chronic condition, day 130, vs control, listed as cocaine, hydrochloride), “significant increase”; in experiment [2] (striatal neurons, chronic condition, day 130, vs control, hydrochloride), “significant decrease”; in experiment [2] (striatal neurons, chronic condition, day 130, vs control, listed as cocaine, hydrochloride) it was “significantly shorter”. The calcium event duration entry in experiment [2] (withdrawal condition, striatal and cortical neurons) is reported as “not significantly different from the chronic condition”. Moreover, the values for the calcium event frequency entry in experiment [2] (cocaine treated vs control) and in experiment [2] (withdrawal condition) were “fewer events per minute” and “only partially recover”, respectively. Also, the “transcriptional change (bulk RNAseq)” value in experiment [3] (VM tissue, chronic and withdrawal vs control) is reported as “only little transcriptional change”; in experiment [3] (forebrain, chronic and withdrawal conditions vs control), “a broad list of genes was differentially expressed”. In experiment [3] (forebrain, chronic and withdrawal conditions), the “genes associated with interferon response (such as IFITM2 and IFITM3)” value was “upregulated”. Further, the “genes associated with neural circuit formation (GO term analysis)” value in experiment [3] (forebrain, chronic and withdrawal vs control) is listed as “downregulation”. Moreover, in experiment [3] (forebrain, chronic exposure and withdrawal vs control), the “GSEA of GO terms dendrite development, axon development and synapse organization” value was “consistently and significantly downregulated”. For the same compound, in experiment [4] (25-day long withdrawal, striatal and cortical tissue), the “diameter of TH+ varicosities, rescue by withdrawal” value is listed as “failed to rescue”. Further, the “density of TH+ varicosities on axons” value in experiment [4] (cortical tissue) and in experiment [4] (striatal tissue) was “significantly increased” in each case. Besides, the “diameter of TH+ varicosities” value in experiment [4] (cortical tissue) and in experiment [4] (striatal tissue) was “significantly reduced” in each case.
